Laboratory results reported in patent US10383956B2, “Fluorescent probe for detecting dipeptidyl peptidase IV” (The University of Tokyo, priority 2014, dated 2019).

How the values were obtained:
DPP-IV = DPP-IV (Homo sapiens, UniProt P27487); assay: DPP-IV assay by fluorescent probe (absorption/fluorescence change, HPLC); type: biochemical
Experimental: Next, DPP-IV was caused to act on compound 1, and the changes in the absorption spectrum and fluorescence spectrum were measured. The results are shown in FIG. 1 (the concentration of compound 1 was 3.5 μM).
Similarly, DPP-IV was caused to act on compound 1, and analysis was conducted by HPLC chromatography.
In addition to compound 1, fluorescence assays were conducted on compounds 2-6 synthesized in the same way in Example 1. For the solution conditions, a solution comprising 18 μL of solution comprising a fluorescent probe concentration of 1.1 μM and 20 mM Tris HCl buffer (pH 7.1), and 2 μL of solution comprising DPP-IV and 20 mM Tris HCl buffer was used. The results obtained by adding DPP-IV to each solution containing a fluorescent probe and measuring the increase in the fluorescence intensity are shown in FIGS. 3 and 4 (excitation wavelength 501 nm, fluorescence wavelength 524 nm). FIG. 3 is a graph snowing the fluorescence intensity increase rate six minutes after DPP-IV addition; FIG. 4 is a graph plotting the time dependence of the fluorescence intensity.

[1] = Absorption and fluorescence spectra of probe and HMRG; type: physicochemical
Description: The absorption spectra and fluorescence spectra of compound 1 (GP-HRMG) having a glycine-proline dipeptide site synthesized in Example 1 and hydroxymethyl rhodamine green (HRMG) not having a dipeptide site were each measured.

[2] = tested on: human esophageal squamous cell carcinoma cells (KYSE30, KYSE270, KYSE140, KYSE520, KYSE150, KYSE 1170); assay: Live cell imaging in cultured esophageal cancer cells; type: cell-based; settings: FIG. 5
Experimental: Imaging was conducted over time after adding GP-HMRG (compound 1) to six types of human esophageal squamous cell carcinoma cells.
As human esophageal squamous cell carcinoma cells, two highly differentiated types (KYSE30, KYSE270), two moderately differentiated types (KYSE140, KYSE520), and two lowly differentiated types (KYSE150, KYSE 1170) were cultured for two days at 37° C., 5% CO2 using a μ-Slide 8 well.

[3] = tested on: human esophageal cancer surgical specimens and ESD specimens; assay: Imaging of human esophageal surgical specimens and ESD specimens; settings: surgical specimen; probe 50 μM with DPP-IV inhibitor, adhered five minutes; FIG. 10
Experimental: Esophageal specimens from patients who underwent surgery and endoscopic submucosal dissection (ESD) for esophageal cancer were brought immediately after removal in each treatment (meaning surgical specimens and ESD specimens, respectively) to an imaging room, and imaging was conducted over time after spraying the specimens directly with various fluorescent probes (compounds 1-6). For surgical specimens, 10 μL of a DMSO solution (10 mM) of the various fluorescent probes was dissolved in 2 mL of RPMI 1640 (phenol red-free) (final probe concentration 50 μM), and imaging was conducted using a Maestro In Vivo Imaging System Ex after spraying the fluorescent probe on the specimen using a spray tube for an endoscope. For ESD specimens, 3 μL of a DMSO solution (10 mM) of the various fluorescent probes was dissolved in 600 μL of RPMI 1640 (phenol red-free) (final probe concentration 50 μM), and imaging was conducted using a Maestro In Vivo Imaging System Ex after adding the fluorescent probe dropwise to the specimen.
Specifically, gauze impregnated with 5 μL of a DMSO solution (10 mM) of EP-HMRG (compound 2) dissolved in 1 mL of RPMI 1640 (phenol red-free) (final probe concentration 50 μM) and gauze impregnated with 5 μL of a DMSO solution (10 mM) of EP-HMRG (compound 2) and 5 μL of a DPP-IV inhibitor (10 mM) dissolved in 1 mL of RPMI 1640 (phenol red-free) were used. […]

Sequence of DPP-IV (P27487 whole entry, species assumed): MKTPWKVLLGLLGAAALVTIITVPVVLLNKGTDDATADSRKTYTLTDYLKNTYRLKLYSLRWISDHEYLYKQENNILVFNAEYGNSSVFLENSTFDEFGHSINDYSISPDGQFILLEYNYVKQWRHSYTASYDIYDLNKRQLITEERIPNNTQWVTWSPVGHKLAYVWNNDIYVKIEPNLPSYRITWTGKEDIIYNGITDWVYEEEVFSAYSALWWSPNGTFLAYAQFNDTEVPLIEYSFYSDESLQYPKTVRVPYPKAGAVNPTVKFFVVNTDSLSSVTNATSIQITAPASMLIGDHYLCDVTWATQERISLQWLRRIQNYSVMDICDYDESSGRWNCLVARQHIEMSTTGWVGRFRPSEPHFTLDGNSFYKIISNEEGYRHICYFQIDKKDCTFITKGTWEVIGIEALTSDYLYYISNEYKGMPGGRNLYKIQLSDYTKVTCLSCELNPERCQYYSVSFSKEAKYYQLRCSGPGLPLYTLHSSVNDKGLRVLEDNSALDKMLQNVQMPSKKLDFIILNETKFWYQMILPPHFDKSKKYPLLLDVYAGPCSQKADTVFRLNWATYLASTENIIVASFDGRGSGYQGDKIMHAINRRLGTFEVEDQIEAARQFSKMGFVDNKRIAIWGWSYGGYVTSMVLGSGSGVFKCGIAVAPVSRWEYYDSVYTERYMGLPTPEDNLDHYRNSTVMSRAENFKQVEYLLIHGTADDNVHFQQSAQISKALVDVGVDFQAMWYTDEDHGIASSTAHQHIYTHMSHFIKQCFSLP

Row | HPLC analysis after reaction with DPP-IV (DPP-IV; FIG. 2) | Maximum absorption wavelength [1] [nm] | Maximum fluorescence wavelength [1] [nm] | pKcycl [1] | Molar extinction coefficient at pH 7.4 [1] | Fluorescence quantum yield [1] | Compound | Change in absorption and fluorescence spectrum on addition of DPP-IV (DPP-IV; compound concentration 3.5 μM, FIG. 1) | Structure form under neutral conditions ([1]; neutral conditions) | Fluorescence intensity in live cells with DPP-IV inhibitor added ([2]; probe 5 μM + 100 μM DPP-IV inhibitor, 60 minutes) | Fluorescence intensity in live cells over time ([2]; probe 10 μM, observed 60 minutes, six cell lines) | Fluorescence intensity in tumor areas with DPP-IV inhibitor [3]
1 | hydrolyzed and cleaved by DPP-IV | 496 | 527 | 5.0 | 300 M^−1cm^−1 |  | NCC(=O)N1CCC[C@H]1C(=O)Nc1ccc2c(c1)Oc1cc(N)ccc1C21OCc2ccccc21 (stereo partly drawn) [Compound 1] | increase in the absorbance and fluorescence intensity | present mainly in a colorless, non-fluorescent, closed-ring structure | fluorescence intensity was lower with the probe with inhibitor added | increase in fluorescence intensity was seen over time in all of the cells | 
2 |  | 501 | 524 | 8.1 | 57,000 M^−1cm^−1 | 0.81 | hydroxymethyl rhodamine green [HMRG, reference compound] |  |  |  |  | 
3 |  |  |  |  |  |  | Nc1ccc2c(c1)Oc1cc(NC(=O)[C@@H]3CCCN3C(=O)[C@@H](N)CCC(=O)O)ccc1C21OCc2ccccc21 (stereo partly drawn) [Compound 2] |  |  |  |  | increase in fluorescence intensity was not seen in tumor areas
